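Assay format: 96-well plates, 48-hour exposure. Here, GI50 denotes the concentration required for 50% inhibition of growth. The concentration for full growth arrest is given as TGI.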
How the values were obtained:
Assay in all cases: inhibition of tumour cell growth, NCI panel, 48 h
[1] = test system: HCT-15 colon
[2] = test system: SK-MEL-2 melanoma
[3] = test system: M14 melanoma
[4] = test system: UACC-257 melanoma
[5] = test system: A498 renal
[6] = test system: U251 CNS
[7] = test system: HS 578T breast
[8] = test system: SW-620 colon
[9] = test system: OVCAR-3 ovarian
[10] = test system: SK-MEL-28 melanoma
[11] = test system: SF-539 CNS
[12] = test system: K-562 leukemia
[13] = test system: SN12C renal
[14] = test system: EKVX NSCLC
[15] = test system: NCI-H226 lung
[16] = test system: SNB-19 CNS
[17] = test system: MCF7 breast
[18] = test system: MOLT-4 leukemia
[19] = test system: SNB-75 CNS
[20] = test system: A549 NSCLC
[21] = test system: NCI/ADR-RES ovarian
[22] = test system: SK-MEL-5 melanoma
[23] = test system: MDA-MB-231 breast
[24] = test system: NCI-H522 lung
[25] = test system: UO-31 renal
[26] = test system: NCI-H23 lung
[27] = test system: SK-OV-3 ovarian
[28] = test system: COLO 205 colon
[29] = test system: SF-295 CNS
[30] = test system: KM12 colon
[31] = test system: MALME-3M melanoma
[32] = test system: HCC-2998 colon
[33] = test system: BT-549 breast
[34] = test system: HOP-62 NSCLC
[35] = test system: CAKI-1 renal
[36] = test system: ACHN renal
[37] = test system: OVCAR-5 ovarian
[38] = test system: TK-10 renal
[39] = test system: PC-3 prostate
[40] = test system: IGROV1 ovarian
[41] = test system: HCT-116 colon
[42] = test system: CCRF-CEM leukemia
[43] = test system: T-47D breast
[44] = test system: DU-145 prostate
[45] = test system: HOP-92 NSCLC
[46] = test system: SF-268 CNS
[47] = test system: SR leukemia
[48] = test system: HL-60(TB) leukemia
[49] = test system: NCI-H460 lung
[50] = test system: UACC-62 melanoma
[51] = test system: OVCAR-8 ovarian
[52] = test system: MDA-MB-435
[53] = test system: HT29 colon
[54] = test system: RXF 393 renal
[55] = test system: LOX IMVI melanoma
[56] = test system: OVCAR-4 ovarian
[57] = test system: 786-0 renal

Compound: COc1cc(/C=C/c2cc(O)c(C(C)=O)c(O)c2)cc2c1O[C@]1(C)CC[C@@H](O)C(C)(C)[C@H]1C2
- GI50 [1]: 4.68 µM
- TGI [1]: 35.7 µM
- GI50 [2]: 7.87 µM
- TGI [2]: 51.6 µM
- GI50 [3]: 5.12 µM
- TGI [3]: 49.4 µM
- GI50 [4]: 11 µM
- TGI [4]: 72.7 µM
- GI50 [5]: 4.78 µM
- TGI [5]: 48.3 µM
- GI50 [6]: 3.71 µM
- TGI [6]: > 100 µM
- GI50 [7]: 1.87 µM
- TGI [7]: 16.2 µM
- GI50 [8]: 5.52 µM
- TGI [8]: > 100 µM
- GI50 [9]: 4.67 µM
- TGI [9]: 53.9 µM
- GI50 [10]: 4.17 µM
- TGI [10]: 26.2 µM
- GI50 [11]: 1.32 µM
- TGI [11]: 6.2 µM
- GI50 [12]: 3.64 µM
- TGI [12]: > 100 µM
- GI50 [13]: 9.07 µM
- TGI [13]: 72.8 µM
- GI50 [14]: 13.1 µM
- TGI [14]: 72.9 µM
- GI50 [15]: 16.8 µM
- TGI [15]: 54.2 µM
- GI50 [16]: 7.46 µM
- TGI [16]: > 100 µM
- GI50 [17]: 3.31 µM
- TGI [17]: 22.2 µM
- GI50 [18]: 3.22 µM
- TGI [18]: 34.7 µM
- GI50 [19]: 1.77 µM
- TGI [19]: 27 µM
- GI50 [20]: 8.54 µM
- TGI [20]: > 100 µM
- GI50 [21]: 14.3 µM
- TGI [21]: 65.8 µM
- GI50 [22]: 7.12 µM
- TGI [22]: 22.3 µM
- GI50 [23]: 6.26 µM
- TGI [23]: 93 µM
- GI50 [24]: 17.3 µM
- TGI [24]: 54 µM
- GI50 [25]: 3.22 µM
- TGI [25]: 65.5 µM
- GI50 [26]: 10.7 µM
- TGI [26]: 34.5 µM
- GI50 [27]: 9.58 µM
- TGI [27]: 79.1 µM
- GI50 [28]: 16.1 µM
- TGI [28]: 68.3 µM
- GI50 [29]: 2.92 µM
- TGI [29]: 10.5 µM
- GI50 [30]: 5.41 µM
- TGI [30]: 45.4 µM
- GI50 [31]: 7.35 µM
- TGI [31]: 44.2 µM
- GI50 [32]: 6.7 µM
- TGI [32]: 32.4 µM
- GI50 [33]: 3.03 µM
- TGI [33]: 27.6 µM
- GI50 [34]: 4.56 µM
- TGI [34]: 48.4 µM
- GI50 [35]: 4.12 µM
- TGI [35]: > 100 µM
- GI50 [36]: 10.5 µM
- TGI [36]: 78.3 µM
- GI50 [37]: 16.3 µM
- TGI [37]: 75.5 µM
- GI50 [38]: 22.2 µM
- TGI [38]: > 100 µM
- GI50 [39]: 3.75 µM
- TGI [39]: > 100 µM
- GI50 [40]: 6.44 µM
- TGI [40]: 69 µM
- GI50 [41]: 4.56 µM
- TGI [41]: 22 µM
- GI50 [42]: 4.4 µM
- TGI [42]: > 100 µM
- GI50 [43]: 6.22 µM
- TGI [43]: 64.6 µM
- GI50 [44]: 16.6 µM
- TGI [44]: > 100 µM
- GI50 [45]: 3.2 µM
- TGI [45]: 61.6 µM
- GI50 [46]: 5.86 µM
- TGI [46]: 55.2 µM
- GI50 [47]: 3.62 µM
- TGI [47]: > 100 µM
- GI50 [48]: 4.13 µM
- TGI [48]: 23.8 µM
- GI50 [49]: 6.26 µM
- TGI [49]: 57.5 µM
- GI50 [50]: 2.89 µM
- TGI [50]: 11.5 µM
- GI50 [51]: 8.24 µM
- TGI [51]: > 100 µM
- GI50 [52]: 7.38 µM
- TGI [52]: 57.2 µM
- GI50 [53]: 4.05 µM
- TGI [53]: > 100 µM
- GI50 [54]: 1.7 µM
- TGI [54]: 6.06 µM
- GI50 [55]: 2.85 µM
- TGI [55]: 13.3 µM
- GI50 [56]: 13.5 µM
- TGI [56]: 74.5 µM
- GI50 [57]: 2.91 µM
- TGI [57]: 28.9 µM

From PubChem BioAssay (NCI)
